Reference: ChEMBL document CHEMBL1777743, “Macrolactin W, a new antibacterial macrolide from a marine Bacillus sp” (2011)
In brackets after ≈: the same amount, converted by molar mass. Activity calls are given as the source filed them. No cut-off for these calls is given here.

Key:
[1] = tested on: NCI-H23; assay: Cytotoxicity against human NCI-H23 at 10 ug/ml; assay type: functional, cell-based
[2] = tested on: PC-3; assay: Cytotoxicity against human PC3 at 10 ug/ml; assay type: functional, cell-based
[3] = tested on: Staphylococcus aureus; assay: Antibacterial activity against Staphylococcus aureus KCTC 1916 after 18 hrs by serial dilution technique; assay type: functional; conditions: KCTC 1916, 18 h
[4] = tested on: Escherichia coli; assay: Antibacterial activity against Escherichia coli KCTC 1923 after 18 hrs by serial dilution technique; assay type: functional; conditions: KCTC 1923, 18 h
[5] = tested on: Bacillus subtilis; assay: Antibacterial activity against Bacillus subtilis KCTC 1021 after 18 hrs by serial dilution technique; assay type: functional; conditions: KCTC 1021, 18 h
[6] = tested on: MDA-MB-231; assay: Cytotoxicity against human MDA-MB-231 at 10 ug/ml; assay type: functional, cell-based
[7] = tested on: Pseudomonas aeruginosa; assay: Antibacterial activity against Pseudomonas aeruginosa KCTC 2592 after 18 hrs by serial dilution technique; assay type: functional; conditions: KCTC 2592, 18 h
[8] = tested on: ACHN; assay: Cytotoxicity against human ACHN at 10 ug/ml; assay type: functional, cell-based
[9] = tested on: HCT-15; assay: Cytotoxicity against human HCT15 at 10 ug/ml; assay type: functional, cell-based
[10] = tested on: NUGC-3; assay: Cytotoxicity against human NUGC3 at 10 ug/ml; assay type: functional, cell-based

MIC [3]: 64 µg/mL (≈ 96.3 µM)
MIC [4]: 64 µg/mL (≈ 96.3 µM)
MIC [5]: 64 µg/mL (≈ 96.3 µM)
MIC [7]: 64 µg/mL (≈ 96.3 µM)
Compound: C[C@H]1CCC/C=C\C=C\[C@H](O)C[C@@H](O)C/C=C\C=C\[C@@H](OC(=O)CCC(=O)O[C@H]2O[C@@H](CO)[C@H](O)[C@@H](O)[C@@H]2O)C/C=C/C=C\C(=O)O1 [MACROLACTIN W]
Activity [1]: inactive
Activity [2]: inactive
Activity [6]: inactive
Activity [8]: inactive
Activity [9]: inactive
Activity [10]: inactive
